# Experimental data taken from US9447408B2, “Method of efficiently establishing induced pluripotent stem cells” (Kyoto University, priority 2010, dated 2016).
# Tested on: Mouse embryonic fibroblasts (MEFs)
# Test: iPS cell establishment from MEFs, 3 genes (Oct3/4, Sox2, Klf4) introduced, with p38 inhibitors
# Assay type: cell-based
# Conditions: 10 μM inhibitor, 2×10^4 cells/10 cm dish, FIG. 2
# Description: Three genes were introduced using a retrovirus by the same experimental procedures as the above. The cells were cultured at a cell density of 2×10^4 cells/10 cm dish, with the addition of 10 μM of SB202190, SB239063, or SB203580 (Calbiochem Company) to the medium per the schedule shown below, and the establishment efficiency was compared. • 1. Oct3/4, Sox2, Klf4, each derived from mouse, saline • 2. Oct3/4, Sox2, Klf4, each derived from mouse, DMSO • 3. Oct3/4, Sox2, Klf4, each derived from mouse, SB202190 10 μM (Day 1-4) • 4. Oct3/4, Sox2, Klf4, each derived from mouse, SB202190 10 μM (Day 1-8) • 5. Oct3/4, Sox2, Klf4, each derived from mouse, SB202190 10 μM (Day 9-16) • 6. Oct3/4, Sox2, Klf4, each derived from mouse, SB202190 10 μM (Day 1-16) • 7. Oct3/4, Sox2, Klf4, each derived from mouse, SB239063 10 μM (Day 1-4) • 8. Oct3/4, Sox2, Klf4, each derived from mouse, SB239063 10 μM (Day 1-8) • 9. Oct3/4, Sox2, Klf4, each derived from mouse, SB239063 10 μM (Day 9-16) • 10. Oct3/4, Sox2, Klf4, each derived from mouse, SB239063 10 μM (Day 1-16) • 11. Oct3/4, Sox2, Klf4, each derived from mouse, SB203580 10 μM (Day 1-4) • 12. Oct3/4, Sox2, Klf4, each derived from mouse, SB203580 10 μM (Day 1-8) • 13. Oct3/4, Sox2, Klf4, each derived from mouse, SB203580 10 μM (Day 9-16) • 14. Oct3/4, Sox2, Klf4, each derived from mouse, SB203580 10 μM (Day 1-16),
structure (smiles),measurement,value
"COc1nccc(-c2c(-c3ccc(F)cc3)ncn2[C@H]2CC[C@H](O)CC2)n1 [SB239063, trans-1-(4-Hydroxycyclohexyl)-4-(4-fluorophenyl)-5-(2-methoxypyrimidin-4-yl)imidazole]",number of Nanog-GFP-positive colonies compared with physiological saline or DMSO,increased
same,total number of colonies compared with physiological saline or DMSO,increased
